Laboratory results reported in US20240197938A1, “ANTIMICROBIAL COMPOUNDS BASED ON GLUCOHEPTONIC ACIDS AND THEIR SALTS” (HARCROS CHEMICALS, INC., priority 2021, published 2024).

Assays:
Type in all cases: cell-based
Salmonella abony = assay: ASTM E2315-16 Time-Kill Procedure; details: for Log Reduction: 30 seconds; for log reduction: 10 minutes
Method: (§1) Select compounds were tested for antimicrobial activity using ASTM method […]-16 (Standard Guide for Assessment of Antimicrobial Activity using a Time-Kill Procedure). Six microbes were tested: Candida albicans, Staphylococcus aureus, Staphylococcus epidermidis. Escherichia coli, Salmonella abony, and Listeria monocytogenes. Four chlorhexidine salts were tested: chlorhexidine di-α-glucoheptonate (Sample G), chlorhexidine di-β73-glucoheptonate (Sample H), chlorhexidine digluconate (Sample I), and chlorhexidine diacetate (Sample P). Both chlorhexidine diglucoheptonate salts were prepared at a 2:1 molar ratio of glucoheptonic acid to chlorhexidine. Dilutions of each salt were prepared using sterile water (20-30 ppm hardness), to achieve the desired wt. % concentration. Benzalkonium salts were also tested using the same procedure as set forth in Example 13. The samples were benzalkonium chloride (C12-C16) (Sample C), benzalkonium chloride (C12-C14) (Sample D), benzalkonium chloride in combination with a stoichiometric amount of α-glucoheptonate (Sample F), and benzalkonium chloride in combination with a molar excess of α-glucoheptonate (Sample N). Sample F was prepared by mixing and extensively heating a stoichiometric quantity (1:1) of sodium α-glucoheptonate with benzalkonium chloride, typified by the C12-14 alkyl chain. Sample N was prepared by simply blending benzalkonium chloride, typified by the C12-16 chain, with a molar excess of sodium α-glucoheptonate (1.6:1). Both Samples F and N contain sodium chloride.

Escherichia coli = assay: ASTM E2315-16 Time-Kill Procedure; details: for Log Reduction: 30 seconds; for log reduction: 10 minutes
Method: as §1

Listeria monocytogenes = assay: ASTM E2315-16 Time-Kill Procedure; details: for Log Reduction: 30 seconds; for log reduction: 10 minutes
Method: as §1

[1] = tested on: all microbes (Candida albicans, Staphylococcus aureus, Staphylococcus epidermidis, Escherichia coli, Salmonella abony, Listeria monocytogenes); assay: ASTM E2315-16 Time-Kill Procedure, average across all microbes; details: for Log Reduction, Average, all microbes: 30 seconds; for average Log Reduction (LR) in microbial population across all microbes / log reduction, Average, all microbes: 10 minutes
Method: as §1, with “concentration. Samples G, H, I, and P were also tested at a concentration of 0.60 wt % active and evaluated for the average Log Reduction in microbial population at 10 minutes, across all microbes. A further test was conducted at a concentration of 1.0 wt % active and evaluated for the average Log Reduction in microbial population at 10 minutes, across all microbes.” for “concentration.”, “chloride. A further antimicrobial test was conducted to determine the log reduction at 10 minutes. Samples C, D, F, and N are as defined above.” for “chloride.”

[2] = tested on: Staphylococcus epidermidis; assay: ASTM E2315-16 Time-Kill Procedure; details: for Log Reduction: 30 seconds; for log reduction: 10 minutes
Method: as §1, with “concentration. Two glucoheptonic acids were evaluated for antimicrobial activity against the same six microbes as Example 13. Sample L was α-glucoheptonic acid. Sample M was β73-glucoheptonic acid.” for “concentration.”

Candida albicans = assay: ASTM E2315-16 Time-Kill Procedure; details: for Log Reduction: 30 seconds; for log reduction: 10 minutes
Method: as §1, with “concentration. Two glucoheptonic acids were evaluated for antimicrobial activity against the same six microbes as Example 13. Sample L was α-glucoheptonic acid. Sample M was β73-glucoheptonic acid.” for “concentration.”

Staphylococcus aureus = assay: ASTM E2315-16 Time-Kill Procedure; details: for Log Reduction: 30 seconds; for log reduction: 10 minutes
Method: as §1, with “concentration. Two glucoheptonic acids were evaluated for antimicrobial activity against the same six microbes as Example 13. Sample L was α-glucoheptonic acid. Sample M was β73-glucoheptonic acid.” for “concentration.”

[3] = 2.5 % w/w, contact time 10 minutes
[4] = 5.0 % w/w, contact time 5 minutes
[5] = 5.0 % w/w, contact time 10 minutes

N=C(NCCCCCCNC(=N)NC(=N)Nc1ccc(Cl)cc1)NC(=N)Nc1ccc(Cl)cc1.O=C(O)C(O)C(O)C(O)C(O)C(O)CO.O=C(O)C(O)C(O)C(O)C(O)C(O)CO [Sample G, chlorhexidine di-α-glucoheptonate]
Log Reduction (Salmonella abony; 0.20% (wt. %)): 3.04
Log Reduction (Salmonella abony; 0.60% (wt. %)): 3.14
Log Reduction (Salmonella abony; 1.00% (wt. %)): 3.39
Log Reduction (Escherichia coli; 0.20% (wt. %)): 3.57
Log Reduction (Escherichia coli; 0.60% (wt. %)): 3.66
Log Reduction (Escherichia coli; 1.00% (wt. %)): 3.77
Log Reduction (Listeria monocytogenes; 0.20% (wt. %)): 1.34
Log Reduction (Listeria monocytogenes; 0.60% (wt. %)): 1.49
Log Reduction (Listeria monocytogenes; 1.00% (wt. %)): 4.99
performance in the Time-Kill Test (Listeria monocytogenes; in words): performed very strongly
Log Reduction, Average, all microbes ([1]; 0.20% (wt. %)): 1.74
Log Reduction, Average, all microbes ([1]; 0.60% (wt. %)): 2.12
Log Reduction, Average, all microbes ([1]; 1.00% (wt. %)): 3.90
average Log Reduction (LR) in microbial population across all microbes ([1]; 0.60 wt % active): 3.85
average Log Reduction (LR) in microbial population across all microbes ([1]; 1.0 wt % active): 5.34
Log Reduction ([2]; 0.20% (wt. %)): 0.95
Log Reduction ([2]; 0.60% (wt. %)): 1.91
Log Reduction ([2]; 1.00% (wt. %)): 3.65
Log Reduction (Candida albicans; 0.20% (wt. %)): 0.75
Log Reduction (Candida albicans; 0.60% (wt. %)): 1.45
Log Reduction (Candida albicans; 1.00% (wt. %)): 4.56
performance in the Time-Kill Test (Candida albicans; in words): performed very strongly
Log Reduction (Staphylococcus aureus; 0.20% (wt. %)): 0.77
Log Reduction (Staphylococcus aureus; 0.60% (wt. %)): 1.07
Log Reduction (Staphylococcus aureus; 1.00% (wt. %)): 3.06

N=C(NCCCCCCNC(=N)NC(=N)Nc1ccc(Cl)cc1)NC(=N)Nc1ccc(Cl)cc1.O=C(O)[C@H](O)[C@@H](O)[C@H](O)[C@H](O)CO.O=C(O)[C@H](O)[C@@H](O)[C@H](O)[C@H](O)CO [Sample I, chlorhexidine digluconate]
Log Reduction (Salmonella abony; 0.20% (wt. %)): 1.86
Log Reduction (Salmonella abony; 0.60% (wt. %)): 2.63
Log Reduction (Salmonella abony; 1.00% (wt. %)): 2.89
Log Reduction (Escherichia coli; 0.20% (wt. %)): 2.93
Log Reduction (Escherichia coli; 0.60% (wt. %)): 3.07
Log Reduction (Escherichia coli; 1.00% (wt. %)): 3.27
Log Reduction (Listeria monocytogenes; 0.20% (wt. %)): 1.99
Log Reduction (Listeria monocytogenes; 0.60% (wt. %)): 3.13
Log Reduction (Listeria monocytogenes; 1.00% (wt. %)): 3.91
Log Reduction, Average, all microbes ([1]; 0.20% (wt. %)): 2.24
Log Reduction, Average, all microbes ([1]; 0.60% (wt. %)): 3.22
Log Reduction, Average, all microbes ([1]; 1.00% (wt. %)): 3.85
average Log Reduction (LR) in microbial population across all microbes ([1]; 0.60 wt % active): 4.84
average Log Reduction (LR) in microbial population across all microbes ([1]; 1.0 wt % active): 5.46
Log Reduction ([2]; 0.20% (wt. %)): 2.00
Log Reduction ([2]; 0.60% (wt. %)): 3.08
Log Reduction ([2]; 1.00% (wt. %)): 3.25
Log Reduction (Candida albicans; 0.20% (wt. %)): 2.91
Log Reduction (Candida albicans; 0.60% (wt. %)): 4.35
Log Reduction (Candida albicans; 1.00% (wt. %)): 6.40
Log Reduction (Staphylococcus aureus; 0.20% (wt. %)): 1.77
Log Reduction (Staphylococcus aureus; 0.60% (wt. %)): 3.07
Log Reduction (Staphylococcus aureus; 1.00% (wt. %)): 3.37

O=C(O)[C@H](O)[C@H](O)[C@@H](O)[C@H](O)[C@H](O)CO [Sample L, α-glucoheptonic acid]
Log Reduction (LR) [2, 3]: 3.39
Log Reduction (LR) [2, 4]: 3.05
Log Reduction (LR) [2, 5]: 3.50
Log Reduction (LR) (Candida albicans; [3]): 3.65
Log Reduction (LR) (Candida albicans; [5]): 3.00

O=C(O)[C@H](O)[C@H](O)[C@@H](O)[C@H](O)[C@H](O)CO [Sample M, β73-glucoheptonic acid]
Log Reduction (LR) ([2]; 1.0 % w/w, contact time 10 minutes): 3.47
Log Reduction (LR) ([2]; 2.5 % w/w, contact time 5 minutes): 3.17
Log Reduction (LR) [2, 3]: 3.50
Log Reduction (LR) [2, 4]: 3.39
Log Reduction (LR) [2, 5]: 3.47
Log Reduction (LR) (Candida albicans; [4]): 3.47
Log Reduction (LR) (Candida albicans; [5]): 4.00
Log Reduction (LR) (Staphylococcus aureus; [3]): 3.13
Log Reduction (LR) (Staphylococcus aureus; [4]): 4.07
Log Reduction (LR) (Staphylococcus aureus; [5]): 4.13

CC(=O)O.CC(=O)O.NC(=N\CCCCCC/N=C(N)/N=C(\N)Nc1ccc(Cl)cc1)/N=C(\N)Nc1ccc(Cl)cc1 [Sample P, chlorhexidine diacetate]
Log Reduction (Salmonella abony; 0.20% (wt. %)): 2.17
Log Reduction (Salmonella abony; 0.60% (wt. %)): 3.34
Log Reduction (Salmonella abony; 1.00% (wt. %)): 4.34
Log Reduction (Escherichia coli; 0.20% (wt. %)): 1.54
Log Reduction (Escherichia coli; 0.60% (wt. %)): 1.59
Log Reduction (Escherichia coli; 1.00% (wt. %)): 3.07
Log Reduction (Listeria monocytogenes; 0.20% (wt. %)): 1.29
Log Reduction (Listeria monocytogenes; 0.60% (wt. %)): 1.36
Log Reduction (Listeria monocytogenes; 1.00% (wt. %)): 1.55
Log Reduction, Average, all microbes ([1]; 0.20% (wt. %)): 2.06
Log Reduction, Average, all microbes ([1]; 0.60% (wt. %)): 3.02
Log Reduction, Average, all microbes ([1]; 1.00% (wt. %)): 3.71
average Log Reduction (LR) in microbial population across all microbes ([1]; 0.60 wt % active): 4.09
average Log Reduction (LR) in microbial population across all microbes ([1]; 1.0 wt % active): 5.17
Log Reduction ([2]; 0.20% (wt. %)): 1.57
Log Reduction ([2]; 0.60% (wt. %)): 3.57
Log Reduction ([2]; 1.00% (wt. %)): 3.75
Log Reduction (Candida albicans; 0.20% (wt. %)): 2.56
Log Reduction (Candida albicans; 0.60% (wt. %)): 3.35
Log Reduction (Candida albicans; 1.00% (wt. %)): 4.48
Log Reduction (Staphylococcus aureus; 0.20% (wt. %)): 3.22
Log Reduction (Staphylococcus aureus; 0.60% (wt. %)): 4.93
Log Reduction (Staphylococcus aureus; 1.00% (wt. %)): 5.07

benzalkonium chloride (C12-C14) [Sample D]
Log Reduction (Salmonella abony; 0.10%): 2.70
Log Reduction (Salmonella abony; 0.25%): 2.86
Log Reduction (Salmonella abony; 0.50%): 3.04
log reduction (Salmonella abony; 0.10%): 4.14
log reduction (Salmonella abony; 0.25%): 4.34
log reduction (Salmonella abony; 0.50%): 4.55
Log Reduction (Escherichia coli; 0.10%): 2.87
Log Reduction (Escherichia coli; 0.25%): 3.17
Log Reduction (Escherichia coli; 0.50%): 3.29
log reduction (Escherichia coli; 0.10%): 4.62
log reduction (Escherichia coli; 0.25%): 4.77
log reduction (Escherichia coli; 0.50%): 5.07
Log Reduction (Listeria monocytogenes; 0.10%): 3.49
Log Reduction (Listeria monocytogenes; 0.25%): 3.77
Log Reduction (Listeria monocytogenes; 0.50%): 3.91
log reduction (Listeria monocytogenes; 0.10%): 5.61
log reduction (Listeria monocytogenes; 0.25%): 5.97
log reduction (Listeria monocytogenes; 0.50%): 6.02
Log Reduction, Average, all microbes ([1]; 0.10%): 3.28
Log Reduction, Average, all microbes ([1]; 0.25%): 3.50
Log Reduction, Average, all microbes ([1]; 0.50%): 3.78
log reduction, Average, all microbes ([1]; 0.10%): 4.84
log reduction, Average, all microbes ([1]; 0.25%): 5.21
log reduction, Average, all microbes ([1]; 0.50%): 5.41
Log Reduction ([2]; 0.10%): 3.39
Log Reduction ([2]; 0.25%): 3.47
Log Reduction ([2]; 0.50%): 3.75
log reduction ([2]; 0.10%): 4.47
log reduction ([2]; 0.25%): 4.98
log reduction ([2]; 0.50%): 5.05
Log Reduction (Candida albicans; 0.10%): 3.65
Log Reduction (Candida albicans; 0.25%): 3.75
Log Reduction (Candida albicans; 0.50%): 4.51
log reduction (Candida albicans; 0.10%): 4.84
log reduction (Candida albicans; 0.25%): 5.55
log reduction (Candida albicans; 0.50%): 5.77
Log Reduction (Staphylococcus aureus; 0.10%): 3.59
Log Reduction (Staphylococcus aureus; 0.25%): 3.97
Log Reduction (Staphylococcus aureus; 0.50%): 4.19
log reduction (Staphylococcus aureus; 0.10%): 5.37
log reduction (Staphylococcus aureus; 0.25%): 5.67
log reduction (Staphylococcus aureus; 0.50%): 5.97
